The results in this text go back to ChEMBL document CHEMBL1151491 (Bioorg Med Chem Lett, 1995).

The target in test [1] is T1, Muscarinic acetylcholine receptor M4 (Rattus norvegicus, UniProt P08485).
T1 sequence (P08485 whole entry): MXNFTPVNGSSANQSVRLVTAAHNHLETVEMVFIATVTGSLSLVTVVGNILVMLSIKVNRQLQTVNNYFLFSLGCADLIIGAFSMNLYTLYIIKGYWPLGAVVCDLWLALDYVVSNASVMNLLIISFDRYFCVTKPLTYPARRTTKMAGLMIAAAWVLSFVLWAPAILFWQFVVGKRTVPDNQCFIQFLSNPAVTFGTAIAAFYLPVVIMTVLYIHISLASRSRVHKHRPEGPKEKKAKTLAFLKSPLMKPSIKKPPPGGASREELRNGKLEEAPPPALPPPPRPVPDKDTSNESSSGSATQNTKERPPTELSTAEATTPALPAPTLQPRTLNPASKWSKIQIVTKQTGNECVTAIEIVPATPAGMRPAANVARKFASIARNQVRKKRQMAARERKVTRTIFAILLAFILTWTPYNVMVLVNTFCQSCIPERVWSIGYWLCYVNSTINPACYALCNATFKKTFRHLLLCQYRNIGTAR
Nature of the test: Inhibition of binding of [3H]N-methylscopolamine to Muscarinic acetylcholine receptor M4 in NG 108-15 cell homogenates. The test is classed as cell-free.

In test [2] the target is T2, Muscarinic acetylcholine receptor M1 (Rattus norvegicus, UniProt P08482).
T2 sequence (P08482 whole entry): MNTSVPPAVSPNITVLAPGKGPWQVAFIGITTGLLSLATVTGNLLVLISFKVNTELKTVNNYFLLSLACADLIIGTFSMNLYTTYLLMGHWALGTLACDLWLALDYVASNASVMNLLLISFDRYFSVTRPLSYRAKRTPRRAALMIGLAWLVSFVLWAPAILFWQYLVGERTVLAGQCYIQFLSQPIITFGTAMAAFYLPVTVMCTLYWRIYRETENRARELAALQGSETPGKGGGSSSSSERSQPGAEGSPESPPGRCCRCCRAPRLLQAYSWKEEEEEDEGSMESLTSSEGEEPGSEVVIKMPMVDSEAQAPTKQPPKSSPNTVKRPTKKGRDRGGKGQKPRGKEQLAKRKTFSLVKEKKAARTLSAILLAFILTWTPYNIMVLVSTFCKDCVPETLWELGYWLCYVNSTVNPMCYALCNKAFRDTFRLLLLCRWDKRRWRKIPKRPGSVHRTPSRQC
Nature of the test: Inhibition of binding of [3H]pirenzepine to muscarinic receptor (M1) in rat cortex homogenates.

Test [3] addresses Muscarinic acetylcholine receptor M3 (Rattus norvegicus, UniProt P08483). Kind of test: Inhibition of binding of [3H]N-methylscopolamine to muscarinic receptor (M3) in rat submaxillary gland homogenates.
The target in test [4] is T3, Muscarinic acetylcholine receptor M2 (Rattus norvegicus, UniProt P10980).
T3 sequence (P10980 whole entry): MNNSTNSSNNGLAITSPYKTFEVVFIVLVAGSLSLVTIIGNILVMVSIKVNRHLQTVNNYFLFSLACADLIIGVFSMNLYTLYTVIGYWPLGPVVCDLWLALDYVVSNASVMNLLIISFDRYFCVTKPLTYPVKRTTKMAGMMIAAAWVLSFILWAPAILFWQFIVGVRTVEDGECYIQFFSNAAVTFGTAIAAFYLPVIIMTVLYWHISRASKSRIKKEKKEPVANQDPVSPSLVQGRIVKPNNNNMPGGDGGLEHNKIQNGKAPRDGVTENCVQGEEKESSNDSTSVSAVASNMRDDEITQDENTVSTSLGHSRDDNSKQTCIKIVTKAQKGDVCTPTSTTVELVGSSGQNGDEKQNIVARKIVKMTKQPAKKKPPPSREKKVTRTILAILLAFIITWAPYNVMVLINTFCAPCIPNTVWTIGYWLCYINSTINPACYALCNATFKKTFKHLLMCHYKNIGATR
Kind of test: Inhibition of binding of [3H]N-methylscopolamine to muscarinic receptor (M2) in rat heart homogenates. Type of test: tissue-based.

The term pKi denotes −log10 of the Ki, conventionally taken in molar units. The low end stands for a high Ki, the high end for a low Ki.

Each structure is given as a SMILES string. pKi: −log10 of the molar value.

Chain of Muscarinic acetylcholine receptor M3 (P08483 whole entry): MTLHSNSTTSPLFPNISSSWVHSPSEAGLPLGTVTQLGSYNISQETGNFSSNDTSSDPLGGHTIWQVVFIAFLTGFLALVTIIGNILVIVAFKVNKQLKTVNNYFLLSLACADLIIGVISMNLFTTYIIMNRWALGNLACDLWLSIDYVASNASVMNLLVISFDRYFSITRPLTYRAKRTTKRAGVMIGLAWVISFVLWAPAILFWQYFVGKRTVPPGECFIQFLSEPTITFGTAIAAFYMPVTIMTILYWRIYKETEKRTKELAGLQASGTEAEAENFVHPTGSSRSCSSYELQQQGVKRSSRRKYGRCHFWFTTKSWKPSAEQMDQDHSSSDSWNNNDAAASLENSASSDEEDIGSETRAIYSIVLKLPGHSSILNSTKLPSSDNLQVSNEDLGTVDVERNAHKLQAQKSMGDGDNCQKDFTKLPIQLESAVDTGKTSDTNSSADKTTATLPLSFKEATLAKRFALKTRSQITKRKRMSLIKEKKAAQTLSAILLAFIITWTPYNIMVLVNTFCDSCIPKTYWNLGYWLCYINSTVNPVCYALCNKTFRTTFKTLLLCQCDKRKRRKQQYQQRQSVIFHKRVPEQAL

Regarding `CN(CCCCCCCCN(C)CCCCCCN1CCC(OC(=O)C(c2ccccc2)c2ccccc2)CC1)CCCCCCN1CCC(OC(=O)C(c2ccccc2)c2ccccc2)CC1`, the pKi is 7.40 in test [1], 7.12 in test [2], 5.67 in test [3] and 6.74 in test [4].
With `C[N+]1(C)CCC(OC(=O)C(c2ccccc2)c2ccccc2)CC1` [4-DAMP], in test [1], the pKi was […].
Regarding `CN(CCCCCCCCN(C)CCCCCCN1CCC2(CC1)OC(=O)C(c1ccccc1)(c1ccccc1)O2)CCCCCCN1CCC2(CC1)OC(=O)C(c1ccccc1)(c1ccccc1)O2` [SPIROTRAMINE], the pKi in test [1] was 6.27; in test [2] it was 7.88; in test [3] it was 6.01; in test [4], 6.20.
